From PubChem BioAssay (NCI)
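Tested at 5 concentrations; 48 h exposure; 96-well plates; endpoints linearly interpolated, else capped at highest concentration. Here, GI50 denotes the concentration required for 50% inhibition of growth. TGI is the concentration that stops growth completely.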

Columns and labels:
Assay in all cases: NCI-60 cell line screen, 48 h
SW-620 colon = test system: SW-620 colon
HL-60(TB) leukemia = test system: HL-60(TB) leukemia
RXF 393 renal = test system: RXF 393 renal
MDA-MB-231 breast = test system: MDA-MB-231 breast
HCT-15 colon = test system: HCT-15 colon
SK-OV-3 ovarian = test system: SK-OV-3 ovarian
SNB-19 CNS = test system: SNB-19 CNS
COLO 205 colon = test system: COLO 205 colon
SF-268 CNS = test system: SF-268 CNS
HOP-92 NSCLC = test system: HOP-92 NSCLC
MOLT-4 leukemia = test system: MOLT-4 leukemia
HCT-116 colon = test system: HCT-116 colon
TK-10 renal = test system: TK-10 renal
HOP-62 NSCLC = test system: HOP-62 NSCLC
SK-MEL-5 melanoma = test system: SK-MEL-5 melanoma
BT-549 breast = test system: BT-549 breast
786-0 renal = test system: 786-0 renal
MALME-3M melanoma = test system: MALME-3M melanoma
OVCAR-5 ovarian = test system: OVCAR-5 ovarian
K-562 leukemia = test system: K-562 leukemia
M14 melanoma = test system: M14 melanoma
HCC-2998 colon = test system: HCC-2998 colon
MDA-MB-435 = test system: MDA-MB-435
SNB-75 CNS = test system: SNB-75 CNS
ACHN renal = test system: ACHN renal
NCI-H522 lung = test system: NCI-H522 lung
PC-3 prostate = test system: PC-3 prostate
RPMI-8226 leukemia = test system: RPMI-8226 leukemia
CAKI-1 renal = test system: CAKI-1 renal
MDA-MB-468 breast = test system: MDA-MB-468 breast
OVCAR-4 ovarian = test system: OVCAR-4 ovarian
A498 renal = test system: A498 renal
MCF7 breast = test system: MCF7 breast
HS 578T breast = test system: HS 578T breast
SK-MEL-28 melanoma = test system: SK-MEL-28 melanoma
SN12C renal = test system: SN12C renal
LOX IMVI melanoma = test system: LOX IMVI melanoma
UACC-62 melanoma = test system: UACC-62 melanoma
SF-539 CNS = test system: SF-539 CNS
IGROV1 ovarian = test system: IGROV1 ovarian
NCI-H460 lung = test system: NCI-H460 lung
NCI-H23 lung = test system: NCI-H23 lung
OVCAR-3 ovarian = test system: OVCAR-3 ovarian
EKVX NSCLC = test system: EKVX NSCLC
T-47D breast = test system: T-47D breast
UO-31 renal = test system: UO-31 renal
U251 CNS = test system: U251 CNS
A549 NSCLC = test system: A549 NSCLC
SF-295 CNS = test system: SF-295 CNS
HT29 colon = test system: HT29 colon
DU-145 prostate = test system: DU-145 prostate
OVCAR-8 ovarian = test system: OVCAR-8 ovarian
UACC-257 melanoma = test system: UACC-257 melanoma
SR leukemia = test system: SR leukemia
CCRF-CEM leukemia = test system: CCRF-CEM leukemia
SK-MEL-2 melanoma = test system: SK-MEL-2 melanoma
NCI-H226 lung = test system: NCI-H226 lung
KM12 colon = test system: KM12 colon

CC(=O)Oc1ccccc1C(=O)NC([Se])=NC1CCCCC1
GI50 (SW-620 colon): 10.2 µM | TGI (SW-620 colon): 23.6 µM | GI50 (HL-60(TB) leukemia): 18.2 µM | TGI (HL-60(TB) leukemia): > 100 µM | GI50 (RXF 393 renal): 1.65 µM | TGI (RXF 393 renal): 3.34 µM | GI50 (MDA-MB-231 breast): 1.96 µM | TGI (MDA-MB-231 breast): 3.77 µM | GI50 (HCT-15 colon): 3.43 µM | TGI (HCT-15 colon): 11.6 µM | GI50 (SK-OV-3 ovarian): 2.84 µM | TGI (SK-OV-3 ovarian): 7.5 µM | GI50 (SNB-19 CNS): 3.28 µM | TGI (SNB-19 CNS): 11.7 µM | GI50 (COLO 205 colon): 17.1 µM | TGI (COLO 205 colon): 31.4 µM | GI50 (SF-268 CNS): 13.7 µM | TGI (SF-268 CNS): 31.2 µM | GI50 (HOP-92 NSCLC): 2.34 µM | TGI (HOP-92 NSCLC): 6.52 µM | GI50 (MOLT-4 leukemia): 10.8 µM | TGI (MOLT-4 leukemia): 98.8 µM | GI50 (HCT-116 colon): 3.18 µM | TGI (HCT-116 colon): 12.6 µM | GI50 (TK-10 renal): 12.1 µM | TGI (TK-10 renal): 24.7 µM | GI50 (HOP-62 NSCLC): 3.35 µM | TGI (HOP-62 NSCLC): 13.4 µM | GI50 (SK-MEL-5 melanoma): 1.63 µM | TGI (SK-MEL-5 melanoma): 3.07 µM | GI50 (BT-549 breast): 3.3 µM | TGI (BT-549 breast): 11.3 µM | GI50 (786-0 renal): 1.72 µM | TGI (786-0 renal): 3.28 µM | GI50 (MALME-3M melanoma): 16.7 µM | TGI (MALME-3M melanoma): 30.3 µM | GI50 (OVCAR-5 ovarian): 2.07 µM | TGI (OVCAR-5 ovarian): 5.15 µM | GI50 (K-562 leukemia): 26.1 µM | TGI (K-562 leukemia): > 100 µM | GI50 (M14 melanoma): 2.43 µM | TGI (M14 melanoma): 5.7 µM | GI50 (HCC-2998 colon): 2.28 µM | TGI (HCC-2998 colon): 5.11 µM | GI50 (MDA-MB-435): 7.88 µM | TGI (MDA-MB-435): 20.9 µM | GI50 (SNB-75 CNS): 1.71 µM | TGI (SNB-75 CNS): 5.87 µM | GI50 (ACHN renal): 9.75 µM | TGI (ACHN renal): 25.8 µM | GI50 (NCI-H522 lung): 15.6 µM | TGI (NCI-H522 lung): 30 µM | GI50 (PC-3 prostate): 2.63 µM | TGI (PC-3 prostate): 8.24 µM | GI50 (RPMI-8226 leukemia): 2.63 µM | TGI (RPMI-8226 leukemia): 7.61 µM | GI50 (CAKI-1 renal): 3.07 µM | TGI (CAKI-1 renal): 11.5 µM | GI50 (MDA-MB-468 breast): 7.37 µM | TGI (MDA-MB-468 breast): 20.7 µM | GI50 (OVCAR-4 ovarian): 4.35 µM | TGI (OVCAR-4 ovarian): 16.9 µM | GI50 (A498 renal): 2.41 µM | TGI (A498 renal): 7.58 µM | GI50 (MCF7 breast): 2.24 µM | TGI (MCF7 breast): 6.8 µM | GI50 (HS 578T breast): 2.67 µM | TGI (HS 578T breast): 9.16 µM | GI50 (SK-MEL-28 melanoma): 3.59 µM | TGI (SK-MEL-28 melanoma): 13.1 µM | GI50 (SN12C renal): 1.99 µM | TGI (SN12C renal): 4.41 µM | GI50 (LOX IMVI melanoma): 1.96 µM | TGI (LOX IMVI melanoma): 4.26 µM | GI50 (UACC-62 melanoma): 1.79 µM | TGI (UACC-62 melanoma): 3.89 µM | GI50 (SF-539 CNS): 1.84 µM | TGI (SF-539 CNS): 3.46 µM | GI50 (IGROV1 ovarian): 2.02 µM | TGI (IGROV1 ovarian): 3.98 µM | GI50 (NCI-H460 lung): 2.62 µM | TGI (NCI-H460 lung): 7.24 µM | GI50 (NCI-H23 lung): 2.24 µM | TGI (NCI-H23 lung): 5.35 µM | GI50 (OVCAR-3 ovarian): 12.4 µM | TGI (OVCAR-3 ovarian): 25.9 µM | GI50 (EKVX NSCLC): 2.12 µM | TGI (EKVX NSCLC): 4.93 µM | GI50 (T-47D breast): 12.5 µM | TGI (T-47D breast): 30.2 µM | GI50 (UO-31 renal): 1.62 µM | TGI (UO-31 renal): 3.03 µM | GI50 (U251 CNS): 2.35 µM | TGI (U251 CNS): 6.24 µM | GI50 (A549 NSCLC): 3.3 µM | TGI (A549 NSCLC): 23 µM | GI50 (SF-295 CNS): 2.24 µM | TGI (SF-295 CNS): 5.08 µM | GI50 (HT29 colon): 4.87 µM | TGI (HT29 colon): 28.7 µM | GI50 (DU-145 prostate): 3.22 µM | TGI (DU-145 prostate): 10.2 µM | GI50 (OVCAR-8 ovarian): 1.95 µM | TGI (OVCAR-8 ovarian): 3.73 µM | GI50 (UACC-257 melanoma): 2.93 µM | TGI (UACC-257 melanoma): 10.2 µM | GI50 (SR leukemia): 3.11 µM | TGI (SR leukemia): 14.4 µM | GI50 (CCRF-CEM leukemia): 5.25 µM | TGI (CCRF-CEM leukemia): 29.4 µM | GI50 (SK-MEL-2 melanoma): 2.35 µM | TGI (SK-MEL-2 melanoma): 5.29 µM | GI50 (NCI-H226 lung): 2.56 µM | TGI (NCI-H226 lung): 9.46 µM | GI50 (KM12 colon): 3.42 µM | TGI (KM12 colon): 11.7 µM
